This is an account of results in ChEMBL document CHEMBL1153258, “Synthesis and antiviral activity of 3-substituted imidazo[1,2-a]pyridines” (Bioorg Med Chem Lett, 1994).

In brackets after ≈: the same amount, converted by molar mass.

Series [1] deals with E6SM. The experiment in a line: Antiviral activity (to reduce virus-induced cytopathogenicity) against Herpes simplex virus-1(KOS) in E6SM cell cultures. The format is functional. Particulars: Homo sapiens.
The test system of series [2] is E6SM. The experiment in a line: Antiviral activity (to reduce virus-induced cytopathogenicity) against Herpes simplex virus-1 TK-B2006 in E6SM cell cultures. The class given is functional. Particulars: Homo sapiens. A general note: Damage to the host cells serves as the signal in cytopathic effect assays.
In series [3] the test system is HEL. The series can be described thus: Antiviral activity against thymidine kinase-positive (TK+) OKA strain of Varicella zoster virus to reduce plaque formation in human embryonic lung (HEL) cells. The class given is functional, cell-based.
For series [4], the system named is HeLa. The series can be described thus: Antiviral activity (to reduce virus-induced cytopathogenicity) against Polio virus-I in HeLa cells. The format is functional. The settings on record: Homo sapiens.
The test system of series [5] is HEL. The experiment in a line: Antiviral activity against Cytomegalovirus (AD-169 strain) to reduce plaque formation in human embryonic lung (HEL) cells. The class given is functional, cell-based.
The test system of series [6] is Vero. The experiment in a line: Antiviral activity (to reduce virus-induced cytopathogenicity) against forest virus in vero cells. The class given is functional. The settings on record: Chlorocebus sabaeus.
Series [7] deals with E6SM. The series can be described thus: Cytotoxicity (to alter cell morphology) against E6SM cell cultures. The class given is functional. The settings on record: Homo sapiens.
In series [8] the test system is HEL. The series can be described thus: Antiviral activity against thymidine kinase-positive (TK+) YS strain of Varicella zoster virus to reduce plaque formation in human embryonic lung (HEL) cells. The class given is functional, cell-based.
Series [9] relates to Vero. The experiment in a line: Antiviral activity (to reduce virus-induced cytopathogenicity) against Parainfluenza-3 virus in vero cells. The class given is functional. Particulars: Chlorocebus sabaeus.
In series [10] the test system is HEL. The experiment in a line: Cytotoxicity (to alter cell morphology) against Cytomegalovirus in human embryonic lung (HEL) cells. The class given is functional.
The subject of series [11] is HeLa. The series can be described thus: Cytotoxicity (to alter cell morphology) against HeLa cells. The format is functional. Particulars: Homo sapiens.
For series [12], the system named is HeLa. The experiment in a line: Antiviral activity (to reduce virus-induced cytopathogenicity) against Coxsackie virus B4 in HeLa cells. The class given is functional. The settings on record: Homo sapiens.
The test system of series [13] is HeLa. The series can be described thus: Antiviral activity (to reduce virus-induced cytopathogenicity) against Vesicular stomatitis virus in HeLa cells. The class given is functional. The settings on record: Homo sapiens.
Series [14] has as its system HEL. The series can be described thus: Antiviral activity against Cytomegalovirus (Davis strain) to reduce plaque formation in human embryonic lung (HEL) cells. The class given is functional, cell-based.
Series [15] has as its system E6SM. The experiment in a line: Antiviral activity (to reduce virus-induced cytopathogenicity) against Vaccinia virus in E6SM cell cultures. The class given is functional. The settings on record: Homo sapiens.
Series [16] can be described thus: Cytotoxicity (to reduce cell growth) against Varicella-Zoster virus in human embryonic lung (HEL) cells. The class given is cell-based.
The test system of series [17] is E6SM. The experiment in a line: Antiviral activity (to reduce virus-induced cytopathogenicity) against Herpes simplex virus-1 TK-VMW1837 in E6SM cell cultures. The class given is functional. Particulars: Homo sapiens.
Series [18] has as its system E6SM. The series can be described thus: Antiviral activity (to reduce virus-induced cytopathogenicity) against Herpes simplex virus-2 (G) in E6SM cell cultures. The class given is functional. The settings on record: Homo sapiens.
The test system of series [19] is HEL. The series can be described thus: Antiviral activity against thymidine kinase-negative (TK-) O7/1 strain of Varicella zoster virus to reduce plaque formation in human embryonic lung (HEL) cells. The class given is functional, cell-based.
For series [20], the system named is HEL. The series can be described thus: Cytotoxicity (to alter cell morphology) against Varicella-Zoster virus in human embryonic lung (HEL) cells. The class given is functional.
Series [21] relates to Vero. The experiment in a line: Antiviral activity (to reduce virus-induced cytopathogenicity) against Sindbis virus in vero cells. The format is functional. Particulars: Chlorocebus sabaeus.
In series [22] the test system is Vero. The experiment in a line: Antiviral activity (to reduce virus-induced cytopathogenicity) against Reovirus-1 in vero cells. The class given is functional. Particulars: Chlorocebus sabaeus.
The test system of series [23] is Vero. The series can be described thus: Antiviral activity (to reduce virus-induced cytopathogenicity) against Coxsackie virus in vero cells. The class given is functional. Particulars: Chlorocebus sabaeus.
Series [24] in a line: Cytotoxicity (to reduce cell growth) against Cytomegalovirus in human embryonic lung (HEL) cells. The class given is cell-based.
The subject of series [25] is E6SM. The experiment in a line: Antiviral activity (to reduce virus-induced cytopathogenicity) against Vesicular stomatitis virus in E6SM cell cultures. Particulars: Homo sapiens. The format is functional.
Series [26] deals with Vero. The series can be described thus: Minimum cytotoxic concentration (to alter cell morphology) against vero cells. The format is functional. The settings on record: Chlorocebus sabaeus.
For series [27], the system named is HEL. The experiment in a line: Antiviral activity against thymidine kinase-negative (TK-) YS/R strain of Varicella zoster virus to reduce plaque formation in human embryonic lung (HEL) cells. The class given is functional, cell-based.

One may read the IC50 as the concentration at which inhibition is half-maximal. Lower therefore signals higher potency. What is called CC50 is the concentration that lowers cell viability or growth by half. A lower CC50 goes with harm at low concentration. For the compound `OCCSCc1c(-c2ccccc2)nc2ccccn12`, the MIC against E6SM [1] is 100 µg/mL (≈ 352 µM); against E6SM [2] it was above 40 µg/mL; in the series on HeLa [4] it was above 100 µg/mL; in the series with Vero [6] it was 20 µg/mL (≈ 70.3 µM); in the series with Vero [9] it was above 10 µg/mL; in the series on HeLa [12], above 100 µg/mL. The MIC was above 100 µg/mL against HeLa [13]; 70 µg/mL (≈ 246 µM) against E6SM [15]; above 40 µg/mL in the series on E6SM [17]; 70 µg/mL (≈ 246 µM) in the series on E6SM [18]; 20 µg/mL (≈ 70.3 µM) in the series on Vero [21]; above 10 µg/mL against Vero [22]. Besides, the MIC is 70 µg/mL (≈ 246 µM) with Vero [23] and above 40 µg/mL with E6SM [25]. Further, the IC50 is 28 µg/mL (≈ 98.5 µM) in the series with HEL [3]; 20 µg/mL (≈ 70.3 µM) in the series with HEL [5]; 35 µg/mL (≈ 123 µM) in the series on HEL [8]; 25 µg/mL (≈ 87.9 µM) in the series with HEL [14]; 26 µg/mL (≈ 91.4 µM) in the series on HEL [19]; 10 µg/mL (≈ 35.2 µM) with HEL [27]. Also, the MCC with E6SM [7] is above 200 µg/mL; in the series with HEL [10], above 40 µg/mL; with HeLa [11], above 100 µg/mL; with HEL [20] it was above 40 µg/mL; in the series with Vero [26], 40 µg/mL. The CC50 in series [16] and in [24] was 80 µg/mL (≈ 281 µM) in each case.

With `Nc1nccc2c1ncn2[C@@H]1O[C@H](CO)[C@@H](O)[C@H]1O`, the MIC against E6SM [1] is above 400 µg/mL; with E6SM [2], 200 µg/mL (≈ 751 µM); against HeLa [4], above 400 µg/mL; against Vero [6], above 400 µg/mL; in the series with Vero [9], 0.7 µg/mL (≈ 2.63 µM); against HeLa [12], above 400 µg/mL. In addition, the MIC was 2 µg/mL (≈ 7.51 µM) against HeLa [13]; 0.7 µg/mL (≈ 2.63 µM) in the series on E6SM [15]; above 400 µg/mL against E6SM [17]; 300 µg/mL (≈ 1130 µM) in the series with E6SM [18]; 4 µg/mL (≈ 15 µM) in the series with Vero [21]; 2 µg/mL (≈ 7.51 µM) against Vero [22]. Besides, the MIC against Vero [23] was above 400 µg/mL; against E6SM [25], 0.7 µg/mL (≈ 2.63 µM). Further, the MCC in the series on E6SM [7], in the series on HeLa [11] and in the series with Vero [26] was above 400 µg/mL in each case.

With `Cc1ccn2c(CSCCO)cnc2c1`, the MIC against E6SM [1] is above 200 µg/mL; with E6SM [2], above 100 µg/mL; against HeLa [4] it was above 10 µg/mL; with Vero [6], above 100 µg/mL; against Vero [9], 70 µg/mL (≈ 315 µM); against HeLa [12] it was above 10 µg/mL. Further, the MIC is above 10 µg/mL with HeLa [13]; above 100 µg/mL with E6SM [15]; above 100 µg/mL against E6SM [17]; above 100 µg/mL with E6SM [18]; 70 µg/mL (≈ 315 µM) with Vero [21]; above 40 µg/mL in the series with Vero [22]. In addition, the MIC in the series on Vero [23] and with E6SM [25] was above 100 µg/mL each time. Moreover, the IC50 was 10 µg/mL (≈ 45 µM) with HEL [3]; above 10 µg/mL in the series on HEL [5]; 6 µg/mL (≈ 27 µM) in the series with HEL [8]; above 10 µg/mL in the series on HEL [14]; 4 µg/mL (≈ 18 µM) in the series with HEL [19]; 7 µg/mL (≈ 31.5 µM) in the series on HEL [27]. In addition, the MCC was above 200 µg/mL in the series with E6SM [7]; 40 µg/mL in the series on HEL [10]; 10 µg/mL with HeLa [11]; 40 µg/mL in the series with HEL [20]; 100 µg/mL in the series with Vero [26]. Further, the CC50 in series [16] and in series [24] was 70 µg/mL (≈ 315 µM) in each case.

Turning to `Cc1ccn2c(COCCO)cnc2c1`, the MIC is above 400 µg/mL in the series with E6SM [1]; above 400 µg/mL in the series with E6SM [2]; above 200 µg/mL in the series with HeLa [4]; above 200 µg/mL with Vero [6]; above 200 µg/mL against Vero [9]; above 200 µg/mL in the series on HeLa [12]. Further, the MIC against HeLa [13] is above 200 µg/mL; in the series on E6SM [15] it was above 400 µg/mL; in the series with E6SM [17], above 400 µg/mL; against E6SM [18] it was above 400 µg/mL; against Vero [21], above 200 µg/mL; in the series with Vero [22], above 200 µg/mL. Besides, the MIC was above 200 µg/mL in the series on Vero [23] and above 400 µg/mL in the series on E6SM [25]. The IC50 with HEL [3], with HEL [5], with HEL [8], with HEL [14], with HEL [19] and in the series with HEL [27] was above 40 µg/mL throughout. Moreover, the MCC in the series on E6SM [7] is above 400 µg/mL; in the series on HEL [10] it was above 40 µg/mL; in the series with HeLa [11], 200 µg/mL; with HEL [20], above 40 µg/mL; in the series on Vero [26] it was above 200 µg/mL. The CC50 in [16] and in series [24] was above 200 µg/mL in each case.

On to `NC(=O)c1ncn([C@@H]2O[C@H](CO)[C@@H](O)[C@H]2O)n1` [RIBAVIRIN], for which the MIC is above 400 µg/mL in the series with E6SM [1]; 300 µg/mL (≈ 1230 µM) with E6SM [2]; 70 µg/mL (≈ 287 µM) against HeLa [4]; 70 µg/mL (≈ 287 µM) against Vero [6]; 70 µg/mL (≈ 287 µM) in the series with Vero [9]; 70 µg/mL (≈ 287 µM) with HeLa [12]. The MIC against HeLa [13] came to 20 µg/mL (≈ 81.9 µM); against E6SM [15] it was 70 µg/mL (≈ 287 µM); against E6SM [17] it was 300 µg/mL (≈ 1230 µM); in the series with E6SM [18], 150 µg/mL (≈ 614 µM); with Vero [21], 70 µg/mL (≈ 287 µM); with Vero [22], 100 µg/mL (≈ 409 µM). Further, the MIC with Vero [23] amounted to 300 µg/mL (≈ 1230 µM); against E6SM [25] it was 150 µg/mL (≈ 614 µM). In addition, the MCC in the series on E6SM [7], in the series on HeLa [11] and in the series on Vero [26] was above 400 µg/mL throughout.
